Laboratory results: ChEMBL document CHEMBL3885861, “Open TG-GATES”

Species on record: Rattus norvegicus
Experiment: Open TG-GATES - Regimen: Daily Repeat
Assay type: toxicity, organism-based, Sprague-Dawley
Design: regimen Daily Repeat, gender Male, age 6 weeks
Settings: in vivo, po, 15 mg/kg, route gavage, dose level High; for APTT / Bas / Eos / Fbg / Hb / Ht / Lym / MCH / MCHC / MCV / Mono / Neu / PT / Plat / RBC / Ret / WBC: tissue Blood; for KIDNEY_L / KIDNEY_R / KIDNEY_TOTAL: tissue Kidney; for LIVER: tissue Liver; for ALP / ALT / AST / BUN / CRE / Ca / Cl / DBIL / GLC / IP / K / LDH / Na / PL / RALB / TBIL / TC / TG / TP / gamma-GTP: tissue Plasma

O=P1(N(CCCl)CCCl)NCCCO1 (stereo not drawn) [CYCLOPHOSPHAMIDE ANHYDROUS]
TERMINAL_BW (72 h, time 3 day): 216.4 g | APTT (72 h, time 3 day): 19.7 s | Bas (72 h, time 3 day): 0% | Eos (72 h, time 3 day): 1% | Fbg (72 h, time 3 day): 279.6 mg/dL | Hb (72 h, time 3 day): 12.9 g/dL | Ht (72 h, time 3 day): 38.7% | Lym (72 h, time 3 day): 73.8% | MCH (72 h, time 3 day): 21.8 pg | MCHC (72 h, time 3 day): 33.3% | MCV (72 h, time 3 day): 65.5 fL | Mono (72 h, time 3 day): 1.4% | Neu (72 h, time 3 day): 23.8% | PT (72 h, time 3 day): 16.8 s | Plat (72 h, time 3 day): 121.4 x10_4/uL | RBC (72 h, time 3 day): 590.2 x10_4/ul | Ret (72 h, time 3 day): 1.6% | WBC (72 h, time 3 day): 25.1 x10_2/uL | KIDNEY_L (72 h, time 3 day): 1 g | KIDNEY_R (72 h, time 3 day): 1 g | KIDNEY_TOTAL (72 h, time 3 day): 1.9 g | LIVER (72 h, time 3 day): 10.1 g | ALP (72 h, time 3 day): 1493.4 IU/L | ALT (72 h, time 3 day): 36.8 IU/L | AST (72 h, time 3 day): 65.2 IU/L | BUN (72 h, time 3 day): 16.4 mg/dL | CRE (72 h, time 3 day): 0.2 mg/dL | Ca (72 h, time 3 day): 10.6 mg/dL | Cl (72 h, time 3 day): 106.4 meq/L | DBIL (72 h, time 3 day): 0 mg/dL | GLC (72 h, time 3 day): 187.6 mg/dL | IP (72 h, time 3 day): 7.8 mg/dL | K (72 h, time 3 day): 3.9 meq/L | LDH (72 h, time 3 day): 169.2 IU/L | Na (72 h, time 3 day): 142.6 meq/L | PL (72 h, time 3 day): 148.2 mg/dL | RALB (72 h, time 3 day): 2.9 g/dL | TBIL (72 h, time 3 day): 0.008 mg/dL | TC (72 h, time 3 day): 78.8 mg/dL | TG (72 h, time 3 day): 95 mg/dL | TP (72 h, time 3 day): 5.5 g/dL | gamma-GTP (72 h, time 3 day): 1 IU/L | TERMINAL_BW ([…], time 7 day): 231.7 g | TERMINAL_BW ([…], time 14 day): 252.5 g | TERMINAL_BW ([…], time 28 day): 239.3 g | APTT ([…], time 7 day): 22.1 s | Bas ([…], time 7 day): 0% | Eos ([…], time 7 day): 1% | Fbg ([…], time 7 day): 277.2 mg/dL | Hb ([…], time 7 day): 13.1 g/dL | Ht ([…], time 7 day): 38.8% | Lym ([…], time 7 day): 77% | MCH ([…], time 7 day): 21 pg | MCHC ([…], time 7 day): 33.6% | MCV ([…], time 7 day): 62.5 fL | Mono ([…], time 7 day): 1.2% | Neu ([…], time 7 day): 20.4% | PT ([…], time 7 day): 15.2 s | Plat ([…], time 7 day): 81.8 x10_4/uL | RBC ([…], time 7 day): 622 x10_4/ul | Ret ([…], time 7 day): 2.8% | WBC ([…], time 7 day): 12.8 x10_2/uL | APTT ([…], time 14 day): 21 s | Bas ([…], time 14 day): 0% | Eos ([…], time 14 day): 0.8% | Fbg ([…], time 14 day): 278.4 mg/dL | Hb ([…], time 14 day): 12.8 g/dL | Ht ([…], time 14 day): 37.3% | Lym ([…], time 14 day): 63% | MCH ([…], time 14 day): 21.1 pg | MCHC ([…], time 14 day): 34.2% | MCV ([…], time 14 day): 61.8 fL | Mono ([…], time 14 day): 3% | Neu ([…], time 14 day): 32.2% | PT ([…], time 14 day): 14.1 s | Plat ([…], time 14 day): 107 x10_4/uL | RBC ([…], time 14 day): 604.8 x10_4/ul | Ret ([…], time 14 day): 2.3% | WBC ([…], time 14 day): 4.7 x10_2/uL | APTT ([…], time 28 day): 20.4 s | Bas ([…], time 28 day): 0% | Eos ([…], time 28 day): 2% | Fbg ([…], time 28 day): 277.6 mg/dL | Hb ([…], time 28 day): 9.3 g/dL | Ht ([…], time 28 day): 27.9% | Lym ([…], time 28 day): 20.8% | MCH ([…], time 28 day): 20.7 pg | MCHC ([…], time 28 day): 33.5% | MCV ([…], time 28 day): 62 fL | Mono ([…], time 28 day): 3.8% | Neu ([…], time 28 day): 69.2% | PT ([…], time 28 day): 17.7 s | Plat ([…], time 28 day): 79.2 x10_4/uL | RBC ([…], time 28 day): 448 x10_4/ul | Ret ([…], time 28 day): 8.3% | WBC ([…], time 28 day): 17.2 x10_2/uL | KIDNEY_L ([…], time 7 day): 0.9 g | KIDNEY_R ([…], time 7 day): 1 g | KIDNEY_TOTAL ([…], time 7 day): 1.9 g | KIDNEY_L ([…], time 14 day): 1 g | KIDNEY_R ([…], time 14 day): 1 g | KIDNEY_TOTAL ([…], time 14 day): 2.1 g | KIDNEY_L ([…], time 28 day): 1.1 g | KIDNEY_R ([…], time 28 day): 1.1 g | KIDNEY_TOTAL ([…], time 28 day): 2.1 g | LIVER ([…], time 7 day): 10.9 g | LIVER ([…], time 14 day): 11.4 g | LIVER ([…], time 28 day): 9.6 g | ALP ([…], time 7 day): 1013 IU/L | ALT ([…], time 7 day): 32.2 IU/L | AST ([…], time 7 day): 59 IU/L | BUN ([…], time 7 day): 16.6 mg/dL | CRE ([…], time 7 day): 0.2 mg/dL | Ca ([…], time 7 day): 10.8 mg/dL | Cl ([…], time 7 day): 106.8 meq/L | DBIL ([…], time 7 day): 0 mg/dL | GLC ([…], time 7 day): 178.8 mg/dL | IP ([…], time 7 day): 6.5 mg/dL | K ([…], time 7 day): 4.1 meq/L | LDH ([…], time 7 day): 200 IU/L | Na ([…], time 7 day): 143 meq/L | PL ([…], time 7 day): 144.8 mg/dL | RALB ([…], time 7 day): 2.8 g/dL | TBIL ([…], time 7 day): 0.018 mg/dL | TC ([…], time 7 day): 71.2 mg/dL | TG ([…], time 7 day): 139.6 mg/dL | TP ([…], time 7 day): 5.4 g/dL | gamma-GTP ([…], time 7 day): 1 IU/L | ALP ([…], time 14 day): 573.6 IU/L | ALT ([…], time 14 day): 19.8 IU/L | AST ([…], time 14 day): 40.8 IU/L | BUN ([…], time 14 day): 18.6 mg/dL | CRE ([…], time 14 day): 0.2 mg/dL | Ca ([…], time 14 day): 10.4 mg/dL | Cl ([…], time 14 day): 109.8 meq/L | DBIL ([…], time 14 day): 0.002 mg/dL | GLC ([…], time 14 day): 175.6 mg/dL | IP ([…], time 14 day): 6.2 mg/dL | K ([…], time 14 day): 4.2 meq/L | LDH ([…], time 14 day): 136 IU/L | Na ([…], time 14 day): 143.4 meq/L | PL ([…], time 14 day): 146 mg/dL | RALB ([…], time 14 day): 2.8 g/dL | TBIL ([…], time 14 day): 0.016 mg/dL | TC ([…], time 14 day): 73.6 mg/dL | TG ([…], time 14 day): 142.4 mg/dL | TP ([…], time 14 day): 5.4 g/dL | gamma-GTP ([…], time 14 day): 1.2 IU/L | ALP ([…], time 28 day): 471.2 IU/L | ALT ([…], time 28 day): 35.8 IU/L | AST ([…], time 28 day): 104.8 IU/L | BUN ([…], time 28 day): 30 mg/dL | CRE ([…], time 28 day): 0.2 mg/dL | Ca ([…], time 28 day): 9.7 mg/dL | Cl ([…], time 28 day): 114.2 meq/L | DBIL ([…], time 28 day): 0.05 mg/dL | GLC ([…], time 28 day): 165.6 mg/dL | IP ([…], time 28 day): 7.3 mg/dL | K ([…], time 28 day): 3.9 meq/L | LDH ([…], time 28 day): 516.4 IU/L | Na ([…], time 28 day): 145.8 meq/L | PL ([…], time 28 day): 122 mg/dL | RALB ([…], time 28 day): 2.6 g/dL | TBIL ([…], time 28 day): 0.1 mg/dL | TC ([…], time 28 day): 69.6 mg/dL | TG ([…], time 28 day): 74.4 mg/dL | TP ([…], time 28 day): 5.1 g/dL | gamma-GTP ([…], time 28 day): 1.6 IU/L
